Experimental findings from PMC7363588, “Mapping of the FGF14:Nav1.6 complex interface reveals FLPK as a functionally active peptide modulating excitability” (Physiological Reports, 2020) are described below.

The assay addresses T1, FGF14^V160A (Homo sapiens, UniProt Q92915, V155A).
T1 construct: aa 64–252); 6X His (N); made in house; host or cells: E. coli BL21 (DE3) pLys
T1 sequence (Q92915 64-252 isoform Q92915-2 V160A): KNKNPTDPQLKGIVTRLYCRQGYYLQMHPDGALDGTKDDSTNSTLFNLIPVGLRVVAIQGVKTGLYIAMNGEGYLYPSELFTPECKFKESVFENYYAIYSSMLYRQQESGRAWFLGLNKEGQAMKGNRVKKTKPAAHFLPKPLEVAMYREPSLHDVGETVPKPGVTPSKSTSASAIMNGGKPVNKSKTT
Description: SPR binding to FGF14^V160A. From the text: Plasmids used in this study derived from the following clones: human FGF14‐1b isoform (accession number: NM_175929.2) and human Nav1.6 (accession number: NM_014191.3). The CLuc‐FGF14, CD4‐Nav1.6‐NLuc, constructs and the pcDNA3.1 vector (Invitrogen, Carlsbad, CA) were engineered and characterized as previously described (Goetz et al., 2009; Shavkunov et al., 2012,2013,2015; Ali et al., 2016, 2018; Wadsworth et al., 2019). The plasmid pGL3 expressing full length Firefly (Photinus pyralis) luciferase was a gift from Dr. P. Sarkar (Department of Neurology, UTMB). For protein purification studies, cDNAs encoding FGF14‐1b (accession number NP_787125; aa 64–252) or the C‐terminal tail of Nav1.6 (accession number #NP_001171455; aa 1756–1939) were subcloned into suitable pET bacterial expression vectors (pET28a‐FGF14; pET30a‐Nav1.6) with a 6X His‐tag at the N‐terminal site; these plasmids were a gift of Dr. Moosa Mohammadi (NYU, Langone Medical Center). The mutation coding for FGF14^V160A was generated by site‐directed mutagenesis and PCR using FGF14‐1b as a template described previously (Ali et al., 2016). For electrophysiological studies FGF14‐GFP (human) and FGF14‐ΔNT‐GFP (human) were cloned into the GFP plasmid (pQBI‐fC2; Quantum Biotechnology Inc., Montreal, Canada) as previously described.
Upon transformation with corresponding cDNA clones, the recombinant proteins FGF14, FGF14^V160A and Nav1.6 C‐terminal tail were expressed in E. coli BL21 (DE3) pLys (Invitrogen) after induction with 0.1 mM isopropyl thio‐β‐D‐galacto‐pyranoside (IPTG) for 24 hr at 16°C. […]
SPR experiments were performed on a Biacore T100 (GE Healthcare Bio‐Sciences, Pittsburgh, PA), and the interaction of FGF14 and Nav1.6 channel toward FLPK, PLEV and EYYV (1–100 µM) were studied at 25°C. […] Maximal equilibrium responses were plotted against peptide concentrations and association rate constant (kon), dissociation rate constatnt (koff) were determined. […]

[1] abbreviates: CM5, 25°C, 1–100 µM, RU 18,000, N.M. = not measurable.

Structures are written as SMILES. “Also recorded” adds a separate entry of the source. Peptide text beside a SMILES is read from it.

In the case of `CC(=O)N[C@@H](Cc1ccccc1)C(=O)N[C@@H](CC(C)C)C(=O)N1CCC[C@H]1C(=O)N[C@@H](CCCCN)C(N)=O` [FLPK] (Ac-FLPK-NH2), under setting [1], the “koff, dissociation rate constant” value is on record as “N.M” and the “kon, association rate constant” value is on record as “N.M”. For the same compound, the “binding to FGF14^V160A” value (peptide 1–100 µM) is “no measurable binding; also recorded: no binding of FLPK was detected”.
